Measurements: patent US20260285857A1, “BICYCLIC AND HETEROCYCLIC AMIDE COMPOUNDS” (priority 2024, published 2026)

System: immunoglobulin light chain protein WIL-FL T46L
Assay: Differential scanning fluorimetry (thermal shift) assay
Type: binding
Conditions: temperature shift [Tm]compound-[Tm]vehicle, recombinant WIL-FL T46L

Row | SMILES | DSF (Table B) | DSF (Table A)
1 | CCS(=O)(=O)Nc1nc(C2C3(CO)COC2(c2nc4c(C)cc(N5CC[C@](C)(c6ccccc6)C5)cn4n2)C3)n[nH]1 (stereo partly drawn) [Compound 573, N-[3-[4-(hydroxymethyl)-1-[8-methyl-6-[(3R)-3-methyl-3-phenyl-pyrrolidin-1-yl]-[1,2,4]triazolo[1,5-a]pyridin-2-yl]-2-oxabicyclo[2.1.1]hexan-5-yl]-1H-1,2,4-triazol-5-yl]ethanesulfonamide] | ***** (>2.5° C.=*****) | –
2 | Cc1cc(N2CC[C@](C)(c3ccccc3)C2)cn2nc(C34CC(C(=O)NCC(=O)O)(CO3)C4)nc12 [Compound 444] | ***** (>2.5° C.=*****) | –
3 | Cc1cc(N2CC[C@](C)(c3ccccc3)C2)cn2nc(C(=O)N[C@H]3CCN(CC(F)F)C3)nc12 [Compound 193] | – | ***** (>2.5° C.=*****)
4 | CCS(=O)(=O)NCC12COC(c3nc4c(C)cc(N5CC[C@](C)(c6ccccc6)C5)cn4n3)(C1)C2CO (stereo partly drawn) [Compound 583, N-((5-(hydroxymethyl)-1-(8-methyl-6-((R)-3-methyl-3-phenylpyrrolidin-1-yl)-[1,2,4]triazolo[1,5-a]pyridin-2-yl)-2-oxabicyclo[2.1.1]hexan-4-yl)methyl)ethanesulfonamide] | ***** (>2.5° C.=*****) | –
5 | Cc1cc(N2CC[C@](C)(c3ccccc3)C2)cn2nc(C(=O)N3CCC4(CCN(c5cccc(C(=O)O)n5)C4)C3)nc12 (some centres unmarked) [Compound 258] | – | ***** (>2.5° C.=*****)
6 | Cc1cc(N2CC[C@](C)(c3ccccc3)C2)cn2nc(C(=O)N3CC4CCN(c5cccc(C(=O)O)n5)CC43)nc12 (some centres unmarked) [Compound 629] | ***** (>2.5° C.=*****) | –
7 | Cc1cc(N2CC[C@](C)(c3ccccc3)C2)cn2nc(C(=O)N(C)[C@@H]3CCNC3)nc12 [Compound 114] | – | ***** (>2.5° C.=*****)
8 | Cc1nc(C2C3(c4nc5c(C)cc(N6CC[C@](C)(c7ccccc7)C6)cn5n4)CC2(C(C)(C)O)CO3)n[nH]1 (mixture of isomers) [Compound 3, 2-[1-[8-methyl-6-[rac-(3R)-3-methyl-3-phenyl-pyrrolidin-1-yl]-[1,2,4]triazolo[1,5-a]pyridin-2-yl]-5-(5-methyl-1H-1,2,4-triazol-3-yl)-2-oxabicyclo[2.1.1]hexan-4-yl]propan-2-ol] | – | ***** (>2.5° C.=*****)
9 | Cc1cc(N2CCC(C)(C3CC4(CC4)C3)C2)cn2nc(C(=O)N3C[C@@H]4CN(c5cccc(C(=O)O)n5)C[C@@H]4C3)nc12 (stereo partly drawn) [Compound 23, 6-((3aR,6aS)-5-(8-methyl-6-(3-methyl-3-(spiro[2.3]hexan-5-yl)pyrrolidin-1-yl)-[1,2,4]triazolo[1,5-a]pyridine-2-carbonyl)hexahydropyrrolo[3,4-c]pyrrol-2(1H)-yl)picolinic acid] | – | **** (>1.5-2.5° C.=****)
10 | Cc1cc(N2CC[C@](C)(c3ccccc3)C2)cn2nc(C(=O)N3CCn4c(nnc4-c4ccnc(C(=O)O)c4)C3)nc12 [Compound 407] | – | ***** (>2.5° C.=*****)
11 | Cc1cc(N2CC[C@](C)(c3ccccc3)C2)cn2nc(C(=O)N3CC4C(C3)C4C(=O)O)nc12 (some centres unmarked) [Compound 158] | – | ***** (>2.5° C.=*****)
12 | COC(C)(CC(=O)NCC12COC(c3nc4c(C)cc(N5CC[C@](C)(c6ccccc6)C5)cn4n3)(C1)C2c1nc(C)n[nH]1)C(=O)O (some centres unmarked) [Compound 589] | ***** (>2.5° C.=*****) | –
13 | Cc1cc(N2CC[C@](C)(c3ccccc3)C2)cn2nc(C(=O)NC3(C)CCCN(c4cccc(C(=O)O)n4)C3)nc12 (some centres unmarked) [Compound 617] | ***** (>2.5° C.=*****) | –
14 | Cc1cc(N2CC[C@](C)(c3ccccc3)C2)cn2nc(C(=O)NC3CCN(N4C[C@@H](O)[C@@H](O)C4)C3)nc12 (some centres unmarked) [Compound 156] | – | ***** (>2.5° C.=*****)
15 | COC(C)(C)CNC(=O)c1nc2c(C)cc(N3CC[C@](C)(c4ccccc4)C3)cn2n1 [Compound 107] | – | ***** (>2.5° C.=*****)
16 | Cc1cc(N2CC[C@](C)(c3ccccc3)C2)cn2nc(C34CC(CO3)C4c3nc(NC(=O)N4CC(C(=O)O)C4)n[nH]3)nc12 (some centres unmarked) [Compound 554] | ***** (>2.5° C.=*****) | –
17 | Cc1cc(N2CC[C@](C)(c3ccccc3)C2)cn2nc(C(=O)NC34COC(C(N)=O)(C3)C4)nc12 [Compound 212] | – | ***** (>2.5° C.=*****)
18 | COC(C)(CS(=O)(=O)Nc1n[nH]c(C2C3COC2(c2nc4c(C)cc(N5CC[C@](C)(c6ccccc6)C5)cn4n2)C3)n1)C(=O)O (some centres unmarked) [Compound 567] | **** (>1.5-2.5° C.=****) | –

Row | SMILES | DSF (Table B) | DSF (Table A)
19 | Cc1cc(N2CCC(C)(c3ccc(F)cc3F)C2)cn2nc(C(=O)N3C[C@@H]4CN(c5cccc(C(=O)O)n5)C[C@@H]4C3)nc12 (some centres unmarked) [Compound 388] | – | **** (>1.5-2.5° C.=****)
20 | COc1ccc(OCC2C3COC2(c2nc4c(C)cc(N5CC[C@](C)(c6ccccc6)C5)cn4n2)C3)cn1 (some centres unmarked) [Compound 499] | ***** (>2.5° C.=*****) | –
21 | CNC(=O)C12CC(NC(=O)c3nc4c(C)cc(N5CC[C@](C)(c6ccccc6)C5)cn4n3)(CO1)C2 [Compound 597] | ***** (>2.5° C.=*****) | –
22 | Cc1cc(N2CC[C@](C)(c3ccccc3)C2)cn2nc(C34CC(CO3)C4Cn3cnn(C)c3=O)nc12 (some centres unmarked) [Compound 89] | – | ***** (>2.5° C.=*****)
23 | Cc1cc(N2CC[C@](C)(c3ccccc3)C2)cn2nc(C(=O)N3CCCN(c4cccc(C(=O)O)n4)CCC3)nc12 [Compound 288] | – | ***** (>2.5° C.=*****)
24 | Cc1cc(OC[C@H](C)c2ccccc2)cn2nc(C(=O)NCC34COC(C3)C4)nc12 [Compound 306] | – | ***** (>2.5° C.=*****)
25 | Cc1cnc(C2(C)CCN(c3cc(C)c4nc(C(=O)N5CC6CN(c7cccc(C(=O)O)n7)CC6C5)nn4c3)C2)nc1 (centres unmarked) [Compound 400] | – | ** (>0.5-1 °C =**)
26 | Cc1cc(N2CC[C@](C)(c3ccccc3)C2)cn2nc(C34CC(CO3)C4Cn3ncc(CO)n3)nc12 (some centres unmarked) [Compound 482] | ***** (>2.5° C.=*****) | –
27 | Cc1noc([C@@H]2C[C@H](NC(=O)c3nc4c(C)cc(N5CC[C@](C)(c6ccccc6)C5)cn4n3)CN2)n1 [Compound 133] | – | ***** (>2.5° C.=*****)
28 | COc1cccc([C@@]2(C)CCN(c3cc(C)c4nc(C(=O)N5CC[C@@]6(CCN(c7cccc(C(=O)O)n7)C6)C5)nn4c3)C2)c1 [Compound 409] | – | ***** (>2.5° C.=*****)
29 | Cc1cc(N2CC[C@](C)(c3ccccc3)C2)cn2nc(C34CC(CN)(CO3)C4CO)nc12 (stereo partly drawn) [Compound 582, (4-(aminomethyl)-1-(8-methyl-6-((R)-3-methyl-3-phenylpyrrolidin-1-yl)-[1,2,4]triazolo[1,5-a]pyridin-2-yl)-2-oxabicyclo[2.1.1]hexan-5-yl)methanol] | ***** (>2.5° C.=*****) | –
30 | Cc1cc(N2CC[C@](C)(c3ccccc3)C2)cn2nc(C(=O)N3C[C@@H]4C[C@H]3C4C(=O)O)nc12 (some centres unmarked) [Compound 211] | – | ***** (>2.5° C.=*****)
31 | CNC(=O)c1nc2c(CO)cc(N3CC[C@](C)(c4ccccc4)C3)cn2n1 [Compound 351] | – | ***** (>2.5° C.=*****)
32 | Cc1cc(N2CC[C@](C)(c3ccccc3)C2)cn2nc(C(=O)NC3C4COCC43)nc12 (some centres unmarked) [Compound 129] | – | ***** (>2.5° C.=*****)
33 | Cc1cc(N2CC[C@](C)(c3cccc(F)c3)C2)cn2nc(C(=O)N3CCC(C)(O)C3)nc12 (some centres unmarked) [Compound 385] | – | ***** (>2.5° C.=*****)
34 | Cc1cc(N2CC[C@](C)(c3ccccc3)C2)cn2nc(C(=O)NC3CN(CC(=O)O)CC3O)nc12 (some centres unmarked) [Compound 110] | – | ***** (>2.5° C.=*****)
35 | Cc1cc(N2CC[C@](C)(c3cccc(F)c3)C2)cn2nc(C34CC(CO3)C4N)nc12 (some centres unmarked) [Compound 508] | ***** (>2.5° C.=*****) | –
